In the supplement of paper PMC10307832:

Legend:
Test in all cases: relative viability (nuclei count vs DMSO), 5 days (fraction); higher = more cells survive
[1] = system: LK-2
Method in brief: (§1)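 The day after seeding in 1536-well plates, lung cancer cell lines were treated by pin tool with a single drug, or with a fixed anchor-drug dose together with five library-drug doses (not always all listed) in √10 steps. After 5 days, a combined fix-and-stain solution (final 0.05% Triton X-100, 1% formaldehyde, 1 ug/ml Hoechst) was added. Nuclei counted on 4× images gave relative viability as treated counts over vehicle counts, reported as the median of duplicate plates.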

[2] = system: NCI-H1666
Method in brief: as §1

[3] = system: ABC-1
Method in brief: as §1

[4] = system: NCI-H2009
Method in brief: as §1

[5] = system: BEN
Method in brief: as §1

[6] = system: NCI-H441
Method in brief: as §1

[7] = system: LOU-NH91
Method in brief: as §1

[8] = system: HARA
Method in brief: as §1

[9] = system: PC-14
Method in brief: as §1

[10] = system: CAL-12T
Method in brief: as §1

[11] = system: 201T
Method in brief: as §1

[12] = system: HCC-366
Method in brief: as §1

[13] = system: NCI-H460
Method in brief: as §1

[14] = system: NCI-H727
Method in brief: as §1

[15] = system: EKVX
Method in brief: as §1

[16] = system: SW 900
Method in brief: as §1

[17] = system: NCI-H3122
Method in brief: as §1

[18] = system: COR-L 105
Method in brief: as §1

[19] = system: NCI-H661
Method in brief: as §1

[20] = system: NCI-H1650
Method in brief: as §1

[21] = system: NCI-H1437
Method in brief: as §1

[22] = system: NCI-H2170
Method in brief: as §1

COc1nc(C)cnc1NS(=O)(=O)c1cccnc1-c1ccc(-c2nnco2)cc1 [Zibotentan] + O=C(CCCCCCC(=O)Nc1ccccc1)NO [Vorinostat] (partner 1 µM)
relative viability ([1]; first compound 0.08 µM): 0.304
relative viability ([1]; first compound 0.253 µM): 0.305
relative viability ([1]; first compound 0.8 µM): 0.338
relative viability ([1]; first compound 2.53 µM): 0.209
relative viability ([2]; first compound 0.08 µM): 1.17
relative viability ([2]; first compound 0.253 µM): 0.95
relative viability ([2]; first compound 0.8 µM): 1.04
relative viability ([2]; first compound 2.53 µM): 1.1
relative viability ([3]; first compound 0.08 µM): 1.01
relative viability ([3]; first compound 0.253 µM): 0.77
relative viability ([3]; first compound 0.8 µM): 1.05
relative viability ([3]; first compound 2.53 µM): 1.53
relative viability ([4]; first compound 0.08 µM): 0.705
relative viability ([4]; first compound 0.253 µM): 0.705
relative viability ([4]; first compound 0.8 µM): 0.72
relative viability ([4]; first compound 2.53 µM): 0.893
relative viability ([5]; first compound 0.08 µM): 0.571
relative viability ([5]; first compound 0.253 µM): 0.556
relative viability ([5]; first compound 0.8 µM): 0.568
relative viability ([5]; first compound 2.53 µM): 0.517
relative viability ([6]; first compound 0.08 µM): 0.78
relative viability ([6]; first compound 0.253 µM): 0.721
relative viability ([6]; first compound 0.8 µM): 0.783
relative viability ([6]; first compound 2.53 µM): 0.794
relative viability ([7]; first compound 0.08 µM): 0.941
relative viability ([7]; first compound 0.253 µM): 0.78
relative viability ([7]; first compound 0.8 µM): 0.953
relative viability ([7]; first compound 2.53 µM): 0.947
relative viability ([8]; first compound 0.08 µM): 0.638
relative viability ([8]; first compound 0.253 µM): 0.633
relative viability ([8]; first compound 0.8 µM): 0.569
relative viability ([8]; first compound 2.53 µM): 0.568
relative viability ([9]; first compound 0.08 µM): 0.937
relative viability ([9]; first compound 0.253 µM): 0.421
relative viability ([9]; first compound 0.8 µM): 0.81
relative viability ([9]; first compound 2.53 µM): 0.77
relative viability ([10]; first compound 0.08 µM): 0.887
relative viability ([10]; first compound 0.253 µM): 0.543
relative viability ([10]; first compound 0.8 µM): 0.742
relative viability ([10]; first compound 2.53 µM): 0.714
relative viability ([11]; first compound 0.08 µM): 0.96
relative viability ([11]; first compound 0.253 µM): 0.972
relative viability ([11]; first compound 0.8 µM): 0.952
relative viability ([11]; first compound 2.53 µM): 1
relative viability ([12]; first compound 0.08 µM): 0.461
relative viability ([12]; first compound 0.253 µM): 0.248
relative viability ([12]; first compound 0.8 µM): 0.21
relative viability ([12]; first compound 2.53 µM): 0.358
relative viability ([13]; first compound 0.08 µM): 0.673
relative viability ([13]; first compound 0.253 µM): 0.541
relative viability ([13]; first compound 0.8 µM): 0.739
relative viability ([13]; first compound 2.53 µM): 0.719
relative viability ([14]; first compound 0.08 µM): 1.19
relative viability ([14]; first compound 0.253 µM): 1.24
relative viability ([14]; first compound 0.8 µM): 1.07
relative viability ([14]; first compound 2.53 µM): 1.19
relative viability ([15]; first compound 0.08 µM): 0.675
relative viability ([15]; first compound 0.253 µM): 0.818
relative viability ([15]; first compound 0.8 µM): 0.727
relative viability ([15]; first compound 2.53 µM): 0.777
relative viability ([16]; first compound 0.08 µM): 0.559
relative viability ([16]; first compound 0.253 µM): 0.404
relative viability ([16]; first compound 0.8 µM): 0.552
relative viability ([16]; first compound 2.53 µM): 0.588
relative viability ([17]; first compound 0.08 µM): 1.05
relative viability ([17]; first compound 0.253 µM): 1.03
relative viability ([17]; first compound 0.8 µM): 1.02
relative viability ([17]; first compound 2.53 µM): 1.02
relative viability ([18]; first compound 0.08 µM): 0.904
relative viability ([18]; first compound 0.253 µM): 0.756
relative viability ([18]; first compound 0.8 µM): 0.781
relative viability ([18]; first compound 2.53 µM): 0.99
relative viability ([19]; first compound 0.08 µM): 0.823
relative viability ([19]; first compound 0.253 µM): 0.766
relative viability ([19]; first compound 0.8 µM): 0.827
relative viability ([19]; first compound 2.53 µM): 0.844
relative viability ([20]; first compound 0.08 µM): 0.528
relative viability ([20]; first compound 0.8 µM): 0.61
relative viability ([20]; first compound 2.53 µM): 0.646
relative viability ([21]; first compound 0.08 µM): 1.05
relative viability ([21]; first compound 0.253 µM): 0.823
relative viability ([21]; first compound 0.8 µM): 0.834
relative viability ([21]; first compound 2.53 µM): 0.828
relative viability ([22]; first compound 0.08 µM): 0.883
relative viability ([22]; first compound 0.253 µM): 0.778
relative viability ([22]; first compound 0.8 µM): 0.875
relative viability ([22]; first compound 2.53 µM): 0.908
